From US20130303532A1, “IMIDAZOPYRAZINES FOR USE AS MPS-1 AND TKK INHIBITORS IN THE TREATMENT HYPERPROLIFERATIVE DISORDERS” (BAYER INTELLECTUAL PROPERTY GmbH, priority 2010, published 2013)
pIC50: −log10 of the molar value.

Biological target: T1, human kinase Mps-1 (Homo sapiens, UniProt P33981)
T1 construct: N-terminally GST-tagged human full length recombinant Mps-1 kinase; GST (N); purchased Invitrogen, Karslruhe, Germany PV4071
T1 sequence (P33981 1-857): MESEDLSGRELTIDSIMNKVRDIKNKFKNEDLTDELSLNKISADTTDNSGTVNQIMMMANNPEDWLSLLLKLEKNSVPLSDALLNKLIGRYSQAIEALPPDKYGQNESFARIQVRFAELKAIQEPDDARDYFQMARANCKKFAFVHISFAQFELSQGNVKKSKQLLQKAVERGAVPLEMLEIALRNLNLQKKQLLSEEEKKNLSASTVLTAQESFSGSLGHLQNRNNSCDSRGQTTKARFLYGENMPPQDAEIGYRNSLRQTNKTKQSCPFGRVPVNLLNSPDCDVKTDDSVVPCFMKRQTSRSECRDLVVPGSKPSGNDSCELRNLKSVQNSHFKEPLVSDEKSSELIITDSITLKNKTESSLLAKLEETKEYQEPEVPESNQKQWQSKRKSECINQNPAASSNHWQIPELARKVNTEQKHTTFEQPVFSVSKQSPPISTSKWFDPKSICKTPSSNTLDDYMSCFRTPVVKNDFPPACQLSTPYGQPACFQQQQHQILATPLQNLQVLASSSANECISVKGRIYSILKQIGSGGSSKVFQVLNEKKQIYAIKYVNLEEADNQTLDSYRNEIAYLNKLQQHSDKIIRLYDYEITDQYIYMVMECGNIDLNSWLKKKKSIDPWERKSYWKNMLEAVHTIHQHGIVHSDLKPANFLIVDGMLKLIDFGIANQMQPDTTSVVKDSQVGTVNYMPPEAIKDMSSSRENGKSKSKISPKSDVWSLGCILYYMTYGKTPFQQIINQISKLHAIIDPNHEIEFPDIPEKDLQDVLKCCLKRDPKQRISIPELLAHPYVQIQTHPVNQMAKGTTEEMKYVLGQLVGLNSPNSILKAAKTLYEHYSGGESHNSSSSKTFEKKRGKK
Experiment: Mps-1 kinase assay (TR-FRET)
Assay type: biochemical
Details: Mps1 IC50 [nM], N-terminally GST-tagged human full length recombinant Mps-1; 10 μM ATP; 1 μM biotinylated peptide substrate; 60 min at 22° C.

| Compound | IC50 [nM] |
| --- | --- |
| Cc1cc(-c2cnc3c(NCCC(C)C)nccn23)ccc1C(=O)NC1CC1 [Example 7-93, N-cyclopropyl-2-methyl-4-{8-[(3-methylbutyl)amino]imi-dazo[1,2-a]pyrazin-3-yl}benzamide] | 13.2 |
| Cc1cc(-c2cnc3c(NCc4ccccc4O)nccn23)ccc1C(=O)NC1CC1 [Example 5-2, N-cyclopropyl-4-{8-[(2-hydroxybenzyl)amino]imi-dazo[1,2-a]pyrazin-3-yl}-2-methylbenzamide] | 24.4 |
| Cc1cc(-c2cnc3c(NCc4c(F)cccc4F)nccn23)ccc1C(=O)NC1CC1 [Example 7-127, N-cyclopropyl-4-{8-[(2,6-difluorobenzyl)amino]imi-dazo[1,2-a]pyrazin-3-yl}-2-methylbenzamide] | 47.1 |
| Cc1cc(-c2cnc3c(NCCC#N)nccn23)ccc1C(=O)NC1CC1 [Example 7-111, 4-{8-[(2-cyanoethyl)amino]imi-dazo[1,2-a]pyrazin-3-yl}-N-cyclopropyl-2-methylbenzamide] | 49.7 |
| O=C(NC1CC1)c1ccc(-c2cnc3c(NCCCN4CCCC4=O)nccn23)cc1O [Example 7-73, N-cyclopropyl-2-hydroxy-4-(8-{[3-(2-oxopyrrolidin-1-yl)propyl]amino}imi-dazo[1,2-a]pyrazin-3-yl)benzamide] | 593 |
| CC(O)CNc1nccn2c(-c3ccc(C(=O)NC4CC4)c(Cl)c3)cnc12 (centres unmarked) [Example 7-57, 2-chloro-N-cyclopropyl-4-{8-[(2-hydroxypropyl)amino]imi-dazo[1,2-a]pyrazin-3-yl}benzamide] | 401 |
| CC(C)(O)CNc1nccn2c(-c3ccc(C(=O)NC4CC4)c(O)c3)cnc12 [Example 7-87, N-cyclopropyl-2-hydroxy-4-{8-[(2-hydroxy-2-methylpropyl)amino]imi-dazo[1,2-a]pyrazin-3-yl}benzamide] | 160 |
| CCOC(C)CNc1nccn2c(-c3ccc(C(=O)NC4CC4)c(Cl)c3)cnc12 (centres unmarked) [Example 7-63, 2-chloro-N-cyclopropyl-4-{8-[(2-ethoxypropyl)amino]imi-dazo[1,2-a]pyrazin-3-yl}benzamide] | 409 |
| Cc1cc(-c2cnc3c(NCc4ccncc4)nccn23)ccc1C(=O)NC1CC1 [Example 7-109, N-cyclopropyl-2-methyl-4-{8-[(pyridin-4-ylmethyl)amino]imi-dazo[1,2-a]pyrazin-3-yl}benzamide] | 166 |
| Cc1cc(-c2cnc3c(NCCCN4CCOCC4)nccn23)ccc1C(=O)NC1CC1 [Example 7-92, N-cyclopropyl-2-methyl-4-(8-{[3-(morpholin-4-yl)propyl]amino}imi-dazo[1,2-a]pyrazin-3-yl)benzamide] | 389 |
| O=C(NC1CC1)c1ccc(-c2cnc3c(NCCCO)nccn23)cc1O [Example 7-78, N-cyclopropyl-2-hydroxy-4-{8-[(3-hydroxypropyl)amino]imi-dazo[1,2-a]pyrazin-3-yl}benzamide] | 93.1 |
| CC(C)CNc1nccn2c(-c3ccc(C(=O)NC4CC4)c(F)c3)cnc12 [Example 1-4, N-cyclopropyl-2-fluoro-4-{8-[(2-methylpropyl)amino]imi-dazo[1,2-a]pyrazin-3-yl}benzamide] | 34 |
| O=C(NC1CC1)c1ccc(-c2cnc3c(NCc4ccccc4F)nccn23)cc1Cl [Example 7-37, 2-chloro-N-cyclopropyl-4-{8-[(2-fluorobenzyl)amino]imi-dazo[1,2-a]pyrazin-3-yl}benzamide] | 93.8 |
| NS(=O)(=O)CCNc1nccn2c(-c3ccc(C(=O)NC4CC4)cc3)cnc12 [Example 7-32, N-cyclopropyl-4-{8-[(2-sulfamoylethyl)amino]imi-dazo[1,2-a]pyrazin-3-yl}benzamide] | 57.2 |
| O=C(NC1CC1)c1ccc(-c2cnc3c(NCC4CCCCO4)nccn23)cc1O (centres unmarked) [Example 7-89, N-cyclopropyl-2-hydroxy-4-{8-[(tetrahydro-2H-pyran-2-ylmethyl)amino]imi-dazo[1,2-a]pyrazin-3-yl}benzamide] | 247 |
| Cn1nccc1CNc1nccn2c(-c3ccc(C(=O)NC4CC4)c(Cl)c3)cnc12 [Example 7-61, 2-chloro-N-cyclopropyl-4-(8-{[(1-methyl-1H-pyrazol-5-yl)methyl]amino}imi-dazo[1,2-a]pyrazin-3-yl)benzamide] | 269 |
| COCCNc1nccn2c(-c3ccc(C(=O)NC4CC4)c(Cl)c3)cnc12 [Example 7-36, 2-chloro-N-cyclopropyl-4-{8-[(2-methoxyethyl)amino]imi-dazo[1,2-a]pyrazin-3-yl}benzamide] | 593 |
| O=C(NC1CC1)c1ccc(-c2cnc3c(NCCCO)nccn23)cc1Cl [Example 7-43, 2-chloro-N-cyclopropyl-4-{8-[(3-hydroxypropyl)amino]imi-dazo[1,2-a]pyrazin-3-yl}benzamide] | 430 |
| Cc1cc(-c2cnc3c(NCc4ccn(C)n4)nccn23)ccc1C(=O)NC1CC1 [Example 7-119, N-cyclopropyl-2-methyl-4-(8-{[(1-methyl-1H-pyrazol-3-yl)methyl]amino}imi-dazo[1,2-a]pyrazin-3-yl)benzamide] | 298 |
| COCCCNc1nccn2c(-c3ccc(C(=O)NC4CC4)cc3)cnc12 [Example 7-3, N-cyclopropyl-4-{8-[(3-methoxypropyl)amino]imi-dazo[1,2-a]pyrazin-3-yl}benzamide] | 95.8 |
| COc1ccccc1CNc1nccn2c(-c3ccc(C(=O)NC4CC4)cc3)cnc12 [Example 4-8, N-cyclopropyl-4-{8-[(2-methoxybenzyl)amino]imi-dazo[1,2-a]pyrazin-3-yl}benzamide] | 85.5 |
| Cc1cc(-c2cnc3c(NCC(C)C)nccn23)cc(C)c1C(=O)NC1CC1 [Example 1-2, N-cyclopropyl-2,6-dimethyl-4-{8-[(2-methylpropyl)amino]imi-dazo[1,2-a]pyrazin-3-yl}benzamide] | 1230 |

Same assay, conditions: N-terminally GST-tagged human full length recombinant Mps-1; 10 μM ATP; 1 μM biotinylated peptide substrate; 60 min at 22° C.; read-out: Mps1 IC50

| Compound | pIC50 |
| --- | --- |
| O=C(NC1CC1)c1ccc(-c2cnc3c(NCCc4cccnc4)nccn23)cc1 [Example 7-23, N-cyclopropyl-4-(8-{[2-(pyridin-3-yl)ethyl]amino}imidazo[1,2-a]pyrazin-3-yl)benzamide] | 6.61 |
| CCCCNc1nccn2c(-c3ccc(C(=O)NC4CC4)c(Cl)c3)cnc12 [Example 7-44, 4-[8-(butylamino)imidazo[1,2-a]pyrazin-3-yl]-2-chloro-N-cyclopropylbenzamide] | 7.27 |
| 4-{8-[(3-amino-3- oxopropyl)amino]imi- dazo[1,2-a]pyrazin-3-yl}-N- cyclopropylbenzamide [Example 7-25] | 5.92 |
| Cc1cc(C(=O)NC2CC2)ccc1-c1cnc2c(NCC(C)C)nccn12 [Example 1-1, N-cyclopropyl-3-methyl-4-{8-[(2-methylpropyl)amino]imidazo[1,2-a]pyrazin-3-yl}benzamide] | 7.28 |
| CS(=O)(=O)CCNc1nccn2c(-c3ccc(C(=O)NC4CC4)cc3)cnc12 [Example 4-1, N-cyclopropyl-4-(8-{[2-(methylsulfonyl)ethyl]amino}imidazo[1,2-a]pyrazin-3-yl)benzamide] | 7.76 |
| O=C(NC1CC1)c1ccc(-c2cnc3c(NCc4ccncc4)nccn23)cc1Cl [Example 7-49, 2-chloro-N-cyclopropyl-4-{8-[(pyridin-4-ylmethyl)amino]imidazo[1,2-a]pyrazin-3-yl}benzamide] | 6.41 |
| O=C(NC1CC1)c1ccc(-c2cnc3c(NCc4cccnc4)nccn23)cc1Cl [Example 7-48, 2-chloro-N-cyclopropyl-4-{8-[(pyridin-3-ylmethyl)amino]imidazo[1,2-a]pyrazin-3-yl}benzamide] | 6.29 |
